# Test results: a melting point compilation (Tetko et al.; mined from patent text by program, amines drawn as free bases though some values may be those of a salt)
row,melting point [°C],Structure (SMILES)
1,164,COc1ccc(O)c2c(C)c(C)[nH]c12
2,149 to 150,CSc1cc(CBr)cc(S(N)(=O)=O)c1Cc1ccccc1
3,152 to 153,CC(=O)OCC1CC(n2c(I)nc3cc(Cl)c(Cl)cc32)C(OC(C)=O)C1OC(C)=O (stereo not given)
4,189 to 190,CCOc1ccc(C(=O)Nc2ccccc2)cc1[N+](=O)[O-]
5,165 to 167,CC1=C(C(=O)OC(C)C)C(c2cccc(Cl)c2)N(C(=O)Oc2ccc([N+](=O)[O-])cc2)CN1 (stereo not given)
6,161 to 163,Cc1c(CO)ncn1C
7,230 to 231,CC1(C(=O)c2c[nH]c3ncc(-c4cccc(N5CCN(S(C)(=O)=O)CC5)c4)nc23)CCCCC1
8,171 to 172,Nc1ncc(S(=O)c2ccc(F)cc2F)s1 (stereo not given)
9,155 to 160,O=C(O)c1ccc2c(c1)CCCC2NC(=O)c1cccc(Oc2ccccc2)c1 (stereo not given)
10,122 to 124,O=C(c1ccccc1)c1cc2ccnc(N(Cc3ccccc3)Cc3ccccc3)c2[nH]1
11,123 to 124,Cn1ccnc1Sc1ncc([N+](=O)[O-])n1C
12,235,CCOP(=O)(O)C(=Nc1ccc(-c2c[nH]cn2)cc1)NC(C)C
13,160 to 162,CS(=O)(=O)N1CCC(Nc2nc(Nc3cccc(C(F)(F)F)c3)nc(OCc3ccccn3)n2)CC1
14,233 to 234,CS(=O)(=O)c1ccc(-c2nn(Cc3ccc(Cl)cc3Cl)c(=O)cc2-c2ccc(Cl)cc2)cc1
15,79 to 80,CSC(=C[N+](=O)[O-])NCCSCc1ncccc1Br
16,52 to 58,COC=C(C(=O)OC)c1ccccc1CSc1ccc2ccccc2c1
17,123 to 125,CN(C(=O)OC(C)(C)C)c1cc(Oc2ccc(-c3ccc(OCc4ccccc4)cc3)cc2)ccc1[N+](=O)[O-]
18,209 to 212,CC(C)(Cn1c(CCO)nc2c(N)nc3ccccc3c21)NS(C)(=O)=O
19,224 to 225,O=C(c1ccc(Cl)cc1)N(c1ccccc1)c1ccc(O)cc1
20,114 to 115,Oc1ccc(O)c(C(F)(F)F)c1
21,> 275,COC(=O)CCc1ccc(N2CCN(c3ccc(C(=N)NC(=O)OC)cc3)S2(=O)=O)cc1
22,98 to 99.5,CC1(O[Si](C)(C)C(C)(C)C)CN(c2ccc([N+](=O)[O-])cc2F)C1
23,142 to 143,CC(C)c1ccc(O[C@@H](Cc2ccc(O)cc2)C(=O)N2C(=O)OC[C@@H]2Cc2ccccc2)cc1

row,melting point [°C],Structure (SMILES)
1,149 to 150,CCc1noc(-c2cn(-c3c(OCc4ccccc4)cccc3OCc3ccccc3)cn2)n1
2,53 to 55,CCCCC(C(=O)N[C@@H](CC(=O)O)c1ccc2c(c1)OCO2)N1C(=O)N(Cc2ccccc2)C(=O)C1(C)C (stereo not given in full)
3,96 to 97,O=C(Cl)c1ccc(C(c2ccc(C(=O)Cl)cc2)(C(F)(F)F)C(F)(F)F)cc1
4,157 to 159,CCCCCC(CC(=O)Nc1cc(C(=O)NC(=O)C(C)C)ccc1C(C)(C)C)c1ccc(OC)cc1OC (stereo not given)
5,170 to 171,COc1ccc(CC(C(N)=O)S(C)=O)cc1C(=O)NCc1ccc(C(F)(F)F)cc1 (stereo not given)
6,110 to 111,O=C(CCc1ccccc1)CN1C(=O)CC1S(=O)Cc1ccccc1 (stereo not given)
7,93 to 94,Brc1ccc(Cc2nccc(-c3ccc(Br)cc3)n2)cc1
8,118 to 119,COc1cc2c(cc1OC)C(CNC=O)c1ccccc1CC2 (stereo not given)
9,114 to 115,CC(Cc1cccc(N)c1)(NC=O)c1ccccc1 (stereo not given)
10,191,CC(C(=O)N1CCCc2ccccc21)N(C(=O)CN1C(=O)c2ccccc2C1=O)c1ccccc1 (racemic)
11,103 to 104,COc1ccc(F)cc1C(C)(C)CC(O)(CN1CCSc2ccccc21)C(F)(F)F (stereo not given)
12,67.4 to 68.2,OCC/C(CCCCCCCCS)=C(\CCO)CCCCCCCCS
13,173 to 175,NC(=NCC(F)(F)F)Nc1nc(CCCCNc2ncccn2)cs1
14,114 to 115,CCCc1nn(CC)c2c(=O)[nH]c(-c3ccccc3OCC)nc12
15,185 to 186,O=[N+]([O-])c1ccc(-c2nnsc2-c2ccc([N+](=O)[O-])cc2)cc1
16,228 to 229,CN(c1cccs1)c1n[nH]c2ncnc(Nc3cccc(Cl)c3)c12
17,188 to 191,CCCCN1CCC(CNC(=O)c2cc(Cl)c(N)n3cc(C)nc23)CC1
18,158 to 160,N#CCCN1c2ccccc2Sc2ccccc21
19,146 to 147,CS(=O)(=O)c1nccc(-c2ccc(Oc3ccc(F)cc3)cc2)n1
20,52 to 53,CCOC(=O)c1ccc(OCC(C)O)cc1 (stereo not given)
21,165 to 167,Cc1nc(Cl)c(C#N)c(NCc2cccnc2)n1
22,168 to 170,CCOC(=O)CC(C#N)=CC(=CN(C)C)c1ccc(Cl)cc1
23,167 to 168,Clc1cc(-c2c(-c3ccccc3)nn3ccccc23)ccn1

row,melting point [°C],Structure (SMILES)
1,195 to 198,CC(=O)OCCN(CCOC(C)=O)c1ccc(C=CC=Cc2ccc([N+](=O)[O-])cc2)cc1
2,73 to 74,CCN(CC)c1nc(C#N)c(C#N)nc1Cc1ccccc1
3,244 to 245,Cc1c(-c2ccccc2)[nH]c(=O)n1C1CCN(Cc2cccc3c2OCO3)CC1
4,151 to 153,COC(=O)C1=C(C)NC(C)=C(C(=O)OCCCCCCOc2cc(-c3ccccc3)[nH]n2)C1c1cccc([N+](=O)[O-])c1 (stereo not given)
5,226 to 229,CC(c1oc2ccccc2c(=O)c1-c1cccc(F)c1)n1nc(-c2csc3ccccc23)c2c(N)ncnc21 (stereo not given)
6,91 to 92,O=C(O)CCc1cn(Cc2ccc(OCc3cccc(-c4cnccn4)c3)cc2)cc1-c1ccccc1
7,86,Nc1ccc(SC(F)(F)F)cc1[N+](=O)[O-]
8,169 to 170,Clc1ccc2c(c1)C(c1ccccc1Cl)NCc1cncnc1-2 (stereo not given)
9,165 to 167,Oc1ccc2c(ccc3ccccc32)c1
10,235 to 245,O=c1oc2cc(OCc3nnn[nH]3)cc(OCc3nnn[nH]3)c2c2c1CC(c1ccccc1)CC2 (stereo not given)
11,82,Cn1nccc1OCc1c(S(C)(=O)=O)ccc(C(=O)C2C(=O)CC(C)(C)CC2=O)c1Cl
12,142 to 143,O=C(NCC(F)F)/C(=C/c1ccc(OC(F)(F)F)cc1)NC(=O)c1ccc(OCCC(F)(F)F)cc1
13,122,COc1ccccc1CNc1ccc2c(-c3noc(C)n3)cccc2n1
14,88,Cc1ccc(C#Cc2cccc(N)c2)cc1
15,98 to 99,O=C1OC(c2ccccc2)CN1Sc1ccc(Cl)cc1 (stereo not given)
16,118 to 121,Cc1ccc(CC2(O)CCNCC2)cc1
17,154 to 157,COC(=O)[C@H](Cc1ccc(NC(=O)c2c(C)cccc2Cl)cc1)NC(=O)OC(C)(C)C
18,280 to 281,CCC(=C(c1ccc(O)cc1)c1ccc(O)cc1)c1ccc(/C=C/C(=O)O)cc1
19,159 to 160,CC(C)c1nc(-c2ccccc2)c(C(C)C)c(-c2ccc(F)cc2)c1C=O
20,149,O=C(CN1CCCC1=O)NCc1cccc(CNC(=O)CN2CCCC2=O)n1
21,169 to 171,O=COC(Cc1ccccc1)C1C(=O)NC1SC(c1ccccc1)(c1ccccc1)c1ccccc1 (stereo not given)
22,110 to 111,O=C(NCCCCCCOC(=O)N1CCC2(CCCC2)CC1)OC1CCN(C(=O)Oc2ccc(-c3ccccc3)cc2)CC1
23,148 to 149,CC(=Cc1ccc(O)cc1)c1ccc2c(c1)C(C)(C)C(O)C2(C)C (stereo not given)

row,melting point [°C],Structure (SMILES)
1,62 to 63,COc1ccc(Cc2nc(N(C)CCO)c3c(C)c(C#N)sc3n2)cc1OC
2,124 to 128,Cc1c(CCNC(=O)OC(C)(C)C)c2cc(S(=O)(=O)c3ccc(C(F)(F)F)cc3)ccc2n1C
3,148 to 150,Cn1c(=O)n(C)c2cc(C(=O)CSCCC(=O)O)c(Cl)cc21
4,237 to 238,O=C(NC(=O)c1c(Cl)cccc1Cl)Nc1noc(-c2ccc(C(F)(F)F)cc2)c1Cl
5,108 to 110,COC(=O)c1ccc2c(CBr)csc2c1
6,126 to 127,CC(C)OC(=O)c1nc2ccc(OCCCN3CCC(OC(c4ccccc4)c4ccccc4)CC3)nn2n1
7,145,CC(=O)Nc1ccc(-c2cc(C(=O)c3ccc(Cl)cc3Cl)sc2N2CCOCC2)cc1
8,193 to 194,O=C(O)c1c(-c2ccccc2)c2ccccc2n1Cc1ccc(OCc2ccccc2)cc1
9,194 to 196,O=C1Nc2cc(C(F)(F)F)ccc2N2CCN(CCc3ccccn3)CC12 (stereo not given)
10,234 to 237,CCCc1nc2c(N)nc3ccccc3c2n1CC1(C(N)=O)CCC1
11,225 to 230,CC1CCN(C)c2nc3[nH]c(=O)cc(C(F)(F)F)c3cc21 (stereo not given)
12,182 to 184,c1cc(CN2CCOCC2)cc(-n2cnc3cc(-c4ccoc4)cnc32)c1
13,171 to 173,Cc1oc(-c2ccccc2)nc1CCOc1ccc(C[C@@H](C(=O)O)N2CCN(S(=O)(=O)c3ccccc3[N+](=O)[O-])CC2)cc1
14,138,Nc1ccccc1SCC(C(=O)O)c1ccc(C(F)(F)F)cc1 (stereo not given)
15,112 to 114,COC(=O)C1=C(C)NC(C)=C(C(=O)OCCN2CCCC2=O)C1c1cccc([N+](=O)[O-])c1 (stereo not given)
16,206 to 208,O=C(CCN1CCN(c2ccccc2)CC1)c1ccc2c(c1)Cc1cc(C(=O)CCN3CCN(c4ccccc4)CC3)ccc1O2
17,253 to 254,CCc1c2nc(-c3cc(S(C)(=O)=O)ccc3OCC(C)C)[nH]c(=O)c2nn1Cc1nccn1C
18,114 to 115,Cc1sc(S(C)(=O)=O)nc1-c1ccccc1
19,115 to 120,CCOc1c(C)c(C)c(OC)c(CN(C)CCOc2cc(C)ccc2C(C)C)c1C
20,125 to 127,Cc1noc(NS(=O)(=O)c2cccs2)c1Br
21,105 to 107,O=C1CCc2c(F)cc(Cl)cc21

row,Structure (SMILES),melting point [°C]
1,CC1(CO)CCN(c2ccc(C#N)c3ccccc23)CC1,136 to 137
2,Cc1cc(C2=NOC(c3cc(Cl)cc(Cl)c3)(C(F)(F)F)C2)ccc1C(=O)Nc1ncc(Cl)cn1 (stereo not given),137 to 141
3,O=C(OCCC1CCCCC1)c1ncn2c1[C@@H]1CCCN1C(=O)c1c(Cl)cccc1-2,131 to 132
4,CCCCCC(C)C(C)c1cc(O)c2c3c(c(=O)oc2c1)CSC3 (stereo not given),165 to 166
5,C=CC1CCC2C3CC=C4CC(O)CCC4(C)C3CCC12C (stereo not given),132 to 135
